Results on nine compounds are retold here after ChEMBL document CHEMBL3243981, “Antileukemic activity of ungeremine and related compounds. Preparation of analogues of ungeremine by a practical photochemical reaction” (J Med Chem, 1978).

Data set [1] deals with P388. Kind of data set: Antileukemic activity against mouse P388 cells allografted in mouse assessed as host survival at 25 mg/kg administered daily as single dose. The data set is classed as functional, organism-based. On the set-up: dose 25 mg/kg.
Data set [2] concerns P388. Nature of the data set: Antileukemic activity against mouse P388 cells allografted in mouse assessed as host survival at 12.5 mg/kg administered daily as single dose. In kind it is functional, organism-based. On the set-up: dose 12.5 mg/kg.
In data set [3] the test system is Mus musculus. Kind of data set: Toxicity in mouse allografted with mouse P388 cells assessed as change in body weight at 18.8 mg/kg administered daily as single dose. The data set is classed as organism-based. On the set-up: dose 18.8 mg/kg. To be noted: in vivo.
Data set [4] deals with P388. Nature of the data set: Antileukemic activity against mouse P388 cells allografted in mouse at 18.8 mg/kg administered daily as single dose relative to control. In kind it is functional.
In data set [5] the test system is P388. Kind of data set: Antileukemic activity against mouse P388 cells allografted in mouse assessed as host survival at 18.8 mg/kg administered daily as single dose. The data set is classed as functional, organism-based. On the set-up: dose 18.8 mg/kg.
Data set [6] deals with P388. Kind of data set: Antileukemic activity against mouse P388 cells allografted in mouse assessed as host survival at 3.13 mg/kg administered daily as single dose. The data set is classed as functional, organism-based. On the set-up: dose 3.13 mg/kg.
Data set [7] deals with P388. Nature of the data set: Antileukemic activity against mouse P388 cells allografted in mouse assessed as host survival at 6.25 mg/kg administered daily as single dose. In kind it is functional, organism-based. On the set-up: dose 6.25 mg/kg.
The subject of data set [8] is P388. Nature of the data set: Antileukemic activity against mouse P388 cells allografted in mouse at 25 mg/kg administered daily as single dose relative to control. In kind it is functional.
The subject of data set [9] is Mus musculus. Nature of the data set: Toxicity in mouse allografted with mouse P388 cells assessed as change in body weight at 12.5 mg/kg administered daily as single dose. The data set is classed as organism-based. On the set-up: dose 12.5 mg/kg. To be noted: in vivo.
Data set [10] relates to P388. Nature of the data set: Antileukemic activity against mouse P388 cells allografted in mouse at 6.25 mg/kg administered daily as single dose relative to control. The data set is classed as functional.
Data set [11] concerns P388. Kind of data set: Antileukemic activity against mouse P388 cells allografted in mouse at 12.5 mg/kg administered daily as single dose relative to control. The data set is classed as functional.
For data set [12], the system named is Mus musculus. Nature of the data set: Toxicity in mouse allografted with mouse P388 cells assessed as change in body weight at 3.13 mg/kg administered daily as single dose. The data set is classed as organism-based. More on the design: dose 3.13 mg/kg. To be noted: in vivo.
Data set [13] relates to P388. Kind of data set: Antileukemic activity against mouse P388 cells allografted in mouse at 3.13 mg/kg administered daily as single dose relative to control. In kind it is functional.
Data set [14] deals with Mus musculus. Kind of data set: Toxicity in mouse allografted with mouse P388 cells assessed as change in body weight at 25 mg/kg administered daily as single dose. The data set is classed as organism-based. More on the design: dose 25 mg/kg. To be noted: in vivo.
The subject of data set [15] is Mus musculus. Nature of the data set: Toxicity in mouse allografted with mouse P388 cells assessed as change in body weight at 6.25 mg/kg administered daily as single dose. The data set is classed as organism-based. More on the design: dose 6.25 mg/kg. To be noted: in vivo.
Data set [16] deals with Mus musculus. Nature of the data set: Toxicity in mouse allografted with mouse P388 cells assessed as change in body weight at 50 mg/kg administered daily as single dose. The data set is classed as organism-based. More on the design: dose 50 mg/kg. To be noted: in vivo.
The test system of data set [17] is P388. Kind of data set: Antileukemic activity against mouse P388 cells allografted in mouse at 100 mg/kg administered daily as single dose relative to control. The data set is classed as functional.
Data set [18] concerns P388. Kind of data set: Antileukemic activity against mouse P388 cells allografted in mouse assessed as host survival at 50 mg/kg administered daily as single dose. In kind it is functional, organism-based. On the set-up: dose 50 mg/kg.
In data set [19] the test system is P388. Kind of data set: Antileukemic activity against mouse P388 cells allografted in mouse at 50 mg/kg administered daily as single dose relative to control. The data set is classed as functional.
In data set [20] the test system is Mus musculus. Nature of the data set: Toxicity in mouse allografted with mouse P388 cells assessed as change in body weight at 100 mg/kg administered daily as single dose. The data set is classed as organism-based. On the set-up: dose 100 mg/kg. To be noted: in vivo.

Molecules are shown by their SMILES. Activity calls are given as the source filed them. No cut-off for these calls is given here.

The term T/C denotes the result in the treated group divided by that in the control group, in per cent.

In the case of `C[n+]1cc2cc3c(cc2c2ccccc21)OCO3.[Cl-]`, the Survival entry in [1], in [2], in data set [5], in [6] and in [7] was “Active” each time. Also, the Activity in data set [3] is given as -1.3 g; in data set [9], -1 g; in [12], -0.3 g; in data set [14], -2.5 g; in [15], -0.9 g. Moreover, the T/C in data set [4] was 144%; in data set [8], 151%; in data set [10], 129%; in data set [11], 135%; in data set [13] it was 126%.

As for `COc1cc2c[n+]3c4c(cccc4c2cc1OC)CC3.[Cl-]`, the Survival result in [1] and in data set [18] was “Active” in each case. Moreover, the Activity is given as -1.7 g in [16], -0.9 g in [14] and -5.1 g in data set [20]. Besides, the T/C in data set [8] is given as 108%; in [17], 114%; in data set [19], 118%.

For the compound `COc1cc2c[n+]3c4c(cccc4c2cc1OC)CCC3.[Cl-]`, the Survival result in data set [1], in data set [2] and in data set [18] was “Active” each time. Further, the values for the Activity in data set [16], in data set [9] and in data set [14] were -3.2 g, -1.4 g and -0.1 g, respectively. The T/C in data set [8] was 108%; in data set [11], 109%; in data set [19], 110%.

For `COS(=O)(=O)[O-].C[n+]1cc2ccccc2c2ccccc21`, the Survival entry in data set [1], in data set [2], in data set [6], in data set [7] and in [18] was “Active” each time. Further, the Activity is reported as -6.4 g in data set [16]; -2.2 g in [9]; -0.8 g in data set [12]; -3.2 g in data set [14]; -1 g in data set [15]. Moreover, the T/C worked out at 125% in data set [8]; 117% in [10]; 120% in data set [11]; 113% in [19]; 108% in data set [13].

With `[Cl-].c1cc2c3c(c1)c1cc4c(cc1c[n+]3CC2)OCO4` [ANHYDROLYCORINIUM CHLORIDE], the Survival result in data set [1], in data set [2] and in data set [7] was “Active” in each case. For the same compound, the T/C in [8] was found to be 153%; in data set [10] it was 127%; in data set [11] it was 142%. Further, the Activity in data set [9] is listed as -2.1 g; in data set [14], -2.9 g; in data set [15], -1.5 g.

Turning to `Oc1cc2c3c(c1)c1cc4c(cc1c[n+]3CC2)OCO4.[Cl-]`, the Survival result in data set [2], in [6] and in data set [7] was “Active” in each case. For the same compound, the T/C in data set [8] is 164%; in [10], 151%; in [11] it was 155%; in data set [13], 133%. Further, the Activity in [9] is given as -2.4 g; in [12], -0.7 g; in data set [14], -3.9 g; in [15], -1.7 g.

With `[O-]c1cc2c3c(c1)c1cc4c(cc1c[n+]3CC2)OCO4` [UNGEREMINE], the Survival entry in data set [1], in data set [2], in data set [6], in [7] and in [18] was “Active” throughout. Also, the Activity in data set [16] is recorded as -3.9 g; in data set [9], -1.9 g; in data set [12] it was -0.7 g; in data set [14] it was -2.1 g; in [15] it was -0.7 g. Besides, the T/C worked out at 148% in data set [8]; 136% in data set [10]; 148% in data set [11]; 152% in [19]; 133% in data set [13].

With `COc1cc2c[n+](C)c3ccccc3c2cc1OC.[Cl-]`, the Survival entry in data set [1], in data set [2] and in data set [18] was “Active” throughout. Besides, the Activity in data set [16] is listed as -1.6 g; in data set [9] it was -1.1 g; in data set [14], -1 g; in [20], -3.8 g. Moreover, the T/C is reported as 121% in [8], 113% in data set [11], 123% in [17] and 130% in [19].

As to `[Cl-].c1cc2c3c(c1)c1cc4c(cc1c[n+]3CCC2)OCO4`, the Survival result in data set [2], in [5], in data set [6] and in [7] was “Active” throughout. Moreover, the Activity was -2.4 g in [3]; -1.9 g in data set [9]; -0.2 g in [12]; -3.3 g in data set [14]; -1.7 g in [15]. Further, the T/C came to 132% in data set [4]; 120% in [8]; 126% in data set [10]; 129% in data set [11]; 110% in data set [13]. In addition, in [18], the Survival entry was “inactive”.
